Where two headings read alike, the source gives them in different places. Numbered stars: 1 amine (or outer) side, 2 acyl side, 3 side chain; on linkers, the order of the positions; unused ones are H or OH. Bridge positions count the residues as written; N and C are the ends. Square brackets hold non-standard residues; d marks the D form. Peptide text beside a SMILES is read from it. Trimesoyl = O=C(c1cc(C(=O)[*:2])cc(C(=O)[*:3])c1)[*:1]; 2Nal = N[C@@H](Cc1ccc2ccccc2c1)C(=O)O; Dap = NC[C@H](N)C(=O)O; βAla = NCCC(=O)O
How the values were obtained:
[1] = system: HeLa cells; assay: Cellular uptake of FITC-labeled peptides by flow cytometry; details: for Permeability (%), cellular uptake efficiency: FITC-labeled peptide 5 μM, 2 h, relative to CPP1 (100%); for Permeability (%), cellular uptake efficiency / cellular entry efficiency (in words): HeLa cells; for cellular entry efficiency (in words): flow cytometry
Description: (§1) For flow cytometry analysis, HeLa cells were seeded into 12-well plates (1.5×10^5 cells per well) 24 hours before treatment. The next day, 5 μM FITC-labeled peptide in DMEM containing 10% FBS was added to each well and allowed to incubate at 37° c. for 2 hours. […] This washing process was repeated once to remove any free compound and left over trypsin. The washed pellet was resuspended in DPBS with 1% FBS and analyzed on a BD LSR II flow cytometer. Data presented were the mean±SD of three independent experiments.

[2] = molecular target: T1, NEMO-IKKβ interaction (Homo sapiens, UniProt Q9Y6K9); assay: HTRF assay of inhibition of the NEMO-IKKβ interaction; assay type: binding; details: for fold lower NEMO-binding affinity / potency: relative to peptide 7; for NEMO-binding affinity on Ala substitution (in words): alanine scan of peptide 7
T1 construct: cells were transformed with a pGEX4T3-NEMO(1-196) plasmid; made in house; host or cells: Escherichia coli BL21(DE3)
T1 sequence (Q9Y6K9 1-196): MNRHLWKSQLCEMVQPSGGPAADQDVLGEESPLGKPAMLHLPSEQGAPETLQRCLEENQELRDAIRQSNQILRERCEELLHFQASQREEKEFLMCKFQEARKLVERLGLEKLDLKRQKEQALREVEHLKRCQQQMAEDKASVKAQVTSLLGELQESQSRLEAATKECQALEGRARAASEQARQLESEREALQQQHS
Description: Recombinant GST-NEMO (20 nM), biotin-IKKβKK/RR(701-745) (50 nM), streptavidin labeled with d2 acceptor (2.5 μg/mL), anti-GST monoclonal antibody labeled with Tb donor (2.5 μg/mL), and varying concentrations of peptide (O-100 μM) were mixed in PBS containing 1 mM TCEP and 0.01% Triton X-100 (total volume 20 μL) in a 384-well plate. […] The HTRF signals were measured on a Tecan Infinite M1000 Pro microplate reader and plotted as a function of the peptide concentration. The data was analyzed using GraphPad Prism 6.0 and IC50 values were obtained by fitting the data to the dose-response inhibition curves. Data presented were the mean±SD of three independent experiments.
Expression of GST-NEMO was induced by the addition of isopropyl β-D-1-thiogalactopyranoside (150 μM final concentration). After five hours at 30° C., the cells were harvested by centrifugation. The cell pellet was suspended in 40 mL of lysis buffer (50 mM Tris-HCl, 100 mM NaCl, 0.5 mM MgCl2, 5 mM O-mercaptoethanol, 0.1% Triton-X-100, pH 8.0), 100 μg/mL lysozyme, 100 μL of DNAse I (New England BioLabs), and 100 μL of Halt Protease Inhibitor Cocktail (EDTA-free) (Thermo Scientific). This mixture was stirred at 4° C. for 30 min and briefly sonicated (2×10 s pulses). The crude lysate was centrifuged to yield a clear supernatant, which was directly loaded onto a glutathione-Sepharose 4B column (GE Healthcare). The bound protein was eluted from the column with 10 mM glutathione in 50 mM Tris-HCl (pH 8.0), concentrated to 0.5 mL with the use of Amicon Ultra-15 centrifugal filter units (MWCO 10 kDa), and dialyzed against PBS before flash freezing.
His-thx-IKKbKK/RR(701-745) was similarly expressed in E. coli BL21 (DE3) cells and purified by affinity chromatography using a HisTrap FF column (GE Healthcare). The fusion protein was eluted with 50 mM Tris-HCl (pH 8.0), 300 mM NaCl, 250 mM imidazole, 2 mM O-mercaptoethanol and treated with TEV protease (150 units for 1 mg of fusion protein) for 16 hours at 4° C. to remove the thioredoxin (thx). The resulting protease digestion mixture was reloaded onto the HisTrap column The flow-through fraction was collected and concentrated to about 2 mg/mL using Amicon Ultra-15 centrifugal filter units (MWCO 10 kDa). The IKKbKK/RR(701-745) peptide was biotinylated by treatment with a 10-fold molar excess of biotin-NHS at 4° C. overnight. The biotinylated IKKbKK/RR(701-745) was purified by reversed-phase HPLC equipped with a C18 column and stored frozen at −80° C.

[3] = system: NF-κB activation in HEK293(Luc) cells; assay: NF-κB luciferase assay; assay type: cell-based
Description: The ability of the bicyclic peptidyl inhibitors to inhibit NF-κB Signaling was analyzed. The ability of peptide 7 to enter the cell and block the intracellular NEMO-IKK interaction was assessed by using HEK293(Luc) cells, which harbor a luciferase gene under the transcriptional control of NF-κB. For the NF-κB Luciferase Assays, culture media was exchanged for DMEM containing 10% FBS and 1% penicillin/streptomycin the day before seeding to remove hygromycin B. HEK293(Luc) cells were seeded in 50 μL of assay medium (DMEM, 10% FBS, and 1% penicillin/streptomycin) in an opaque 96-well microplate (3000 cells per well) and incubated overnight. The peptide inhibitors were added to the cells the next day in 5 μL of assay medium and the plate was incubated at 37° c. for 2 h. After that, 5 μL of assay media containing recombinant TNFα (final concentration 5 ng/mL) was added to the wells. The plate was then returned to the incubator for 4 h at 37° c. Finally, 50 μL of ONE-Step luciferase assay reagent was added to each well and after 10 minutes the luminescence was measured on a Tecan Infinite M1000 Pro microplate reader. Data presented were the mean±SD of at least three independent experiments (n=6 for basal activities).

[4] = system: A2780 cells; assay: MTT cell viability assay, A2780; assay type: cell-based; details: 72 hours
Description: For the MTT cell viability assay, HeLa, HEK293, A2780, OSE or A375 cells were seeded into a 96-well microplate (3000 cells/well) in 100 μl of respective growth media and incubated at 37° c. overnight. The next day, a serial dilution of peptide was added to each well in 10 μL of assay medium. The treated cells were incubated at 37° c. with 5% CO2 for 72 hours. Following compound treatment, 10 μL of MTT stock solution (Roche) was added to each well. After an additional 4 h at 37° C., 100 μL of SDS-HCl solubilizing solution was added to each well and the plate was returned to the incubator overnight at 37° c. A Tecan Infinite M1000 Pro microplate reader was used the following morning to measure the absorbance of the formazan product at 565 nm.

[5] = system: HeLa cells
Description: as §1

[6] = Proteolytic stability in human serum (analytical HPLC)
Description: The proteolytic stability of peptide 7 was assessed by incubation in human serum at 37° C. and quantitation of the remaining peptide as a function of time by analytical HPLC.

CC[C@H](C)[C@@H]1NC(=O)[C@H](Cc2c[nH]c3ccccc23)NC(=O)CNC(=O)c2cc3cc(c2)C(=O)NC[C@H](NC(=O)[C@H](Cc2ccc(O)cc2)NC1=O)C(=O)N[C@@H](Cc1ccccc1)C(=O)N[C@@H](Cc1ccc2ccccc2c1)C(=O)N[C@@H](CCCNC(=N)N)C(=O)N[C@H](CCCNC(=N)N)C(=O)N[C@@H](CCCNC(=N)N)C(=O)N[C@H](C(=O)NCCC(=O)NCCC(=O)N[C@@H](CCCCN)C(=O)O)CNC3=O [Peptide 6, Tm(GWIY)Δ(FΦRrRΔ)-BBK] (GWIY[Dap]F[2Nal]R[dR]R[Dap][βAla][βAla]K-OH; linker N-5-11 via Trimesoyl; C-terminus assumed)
Permeability (%), cellular uptake efficiency [1]: 322% | increase of uptake efficiency ([1]; second arginine replaced with D-arginine, versus peptide 2): 4.2 fold

CC[C@H](C)[C@@H]1NC(=O)[C@H](Cc2c[nH]c3ccccc23)NC(=O)CNC(=O)c2cc3cc(c2)C(=O)NC[C@H](NC(=O)[C@H](Cc2ccc(O)cc2)NC1=O)C(=O)N[C@@H](Cc1ccccc1)C(=O)N[C@@H](Cc1ccc2ccccc2c1)C(=O)N[C@@H](CCCNC(=N)N)C(=O)N[C@@H](CCCNC(=N)N)C(=O)N[C@@H](CCCNC(=N)N)C(=O)N[C@H](C(=O)N[C@@H](CCCNC(=N)N)C(=O)NCCC(=O)N[C@@H](CCCCN)C(=O)O)CNC3=O [Peptide 4, Tm(GWIY)Δ(FΦRRRΔ)-RBK] (GWIY[Dap]F[2Nal]RRR[Dap]R[βAla]K-OH; linker N-5-11 via Trimesoyl; C-terminus assumed)
Permeability (%), cellular uptake efficiency [1]: 71% | cellular entry efficiency (in words) [1]: slightly decreased the cellular entry efficiency

CC[C@H](C)[C@@H]1NC(=O)[C@H](C)NC(=O)CNC(=O)c2cc3cc(c2)C(=O)NC[C@@H](C(=O)NCCC(=O)NCCC(=O)N[C@@H](CCCCN)C(=O)O)NC(=O)[C@H](CCCNC(=N)N)NC(=O)[C@@H](CCCNC(=N)N)NC(=O)[C@H](CCCNC(=N)N)NC(=O)[C@H](Cc2ccc4ccccc4c2)NC(=O)[C@H](Cc2ccccc2)NC(=O)[C@H](CNC3=O)NC(=O)[C@H](C)NC(=O)[C@H](C)NC1=O [Peptide 20, Tm(GAIAA)Δ(FΦRrRΔ)-BBK] (GAIAA[Dap]F[2Nal]R[dR]R[Dap][βAla][βAla]K-OH; linker N-6-12 via Trimesoyl; C-terminus assumed)
fold lower NEMO-binding affinity / potency [2]: 16 fold | effect on TNFα-induced luciferase activity (in words) [3]: decreased the luciferase activity only at high concentrations | activity on A2780 viability (in words) [4]: much less active than peptide 7

CC[C@H](C)[C@@H]1NC(=O)[C@H](Cc2c[nH]c3ccccc23)NC(=O)CNC(=O)c2cc3cc(c2)C(=O)NC[C@@H](C(=O)N[C@H](CCCNC(=N)N)C(=O)NCCC(=O)N[C@@H](CCCCN)C(=O)O)NC(=O)[C@H](CCCNC(=N)N)NC(=O)[C@H](CCCNC(=N)N)NC(=O)[C@H](CCCNC(=N)N)NC(=O)[C@H](Cc2ccc4ccccc4c2)NC(=O)[C@H](Cc2ccccc2)NC(=O)[C@H](CNC3=O)NC(=O)[C@H](Cc2ccc(O)cc2)NC1=O [Peptide 5, Tm(GWIY)Δ(FΦRRRΔ)-rBK] (GWIY[Dap]F[2Nal]RRR[Dap][dR][βAla]K-OH; linker N-5-11 via Trimesoyl; C-terminus assumed)
Permeability (%), cellular uptake efficiency [1]: 71% | cellular entry efficiency (in words) [1]: slightly decreased the cellular entry efficiency

CC[C@H](C)[C@@H]1NC(=O)[C@H](Cc2c[nH]c3ccccc23)NC(=O)CNC(=O)c2cc3cc(c2)C(=O)NC[C@@H](C(=O)NCCC(=O)NCCC(=O)N[C@@H](CCCCN)C(=O)O)NC(=O)[C@H](CCCNC(=N)N)NC(=O)[C@@H](CCCNC(=N)N)NC(=O)[C@H](CCCNC(=N)N)NC(=O)[C@H](C)NC(=O)[C@H](Cc2ccccc2)NC(=O)[C@H](CNC3=O)NC(=O)[C@H](C)NC(=O)[C@H](Cc2ccc(O)cc2)NC1=O [Peptide 16, Tm(GWIYA)Δ(FARrRΔ)-BBK] (GWIYA[Dap]FAR[dR]R[Dap][βAla][βAla]K-OH; linker N-6-12 via Trimesoyl; C-terminus assumed)
NEMO-binding affinity on Ala substitution (in words) [2]: significantly de-creased the NEMO-binding affinity

CC[C@H](C)[C@@H]1NC(=O)[C@H](Cc2c[nH]c3ccccc23)NC(=O)CNC(=O)c2cc3cc(c2)C(=O)NC[C@H](NC(=O)[C@H](Cc2ccc(O)cc2)NC1=O)C(=O)N[C@@H](Cc1ccccc1)C(=O)N[C@@H](Cc1ccc2ccccc2c1)C(=O)N[C@@H](CCCNC(=N)N)C(=O)N[C@@H](CCCNC(=N)N)C(=O)N[C@@H](CCCNC(=N)N)C(=O)N[C@H](C(=O)NCCC(=O)NCCC(=O)N[C@@H](CCCCN)C(=O)O)CNC3=O [Peptide 2, Tm(GWIY)Δ(FΦRRRΔ)-BBK] (GWIY[Dap]F[2Nal]RRR[Dap][βAla][βAla]K-OH; linker N-5-11 via Trimesoyl; C-terminus assumed)
Permeability (%), cellular uptake efficiency [1]: 76%

CC[C@H](C)[C@@H]1NC(=O)[C@H](Cc2c[nH]c3ccccc23)NC(=O)CNC(=O)c2cc3cc(c2)C(=O)NC[C@H](NC(=O)[C@H](Cc2ccc(O)cc2)NC1=O)C(=O)N[C@@H](Cc1ccccc1)C(=O)N[C@@H](Cc1ccc2ccccc2c1)C(=O)N[C@@H](CCCNC(=N)N)C(=O)N[C@@H](CCCNC(=N)N)C(=O)N[C@@H](CCCNC(=N)N)C(=O)N[C@@H](CCCNC(=N)N)C(=O)N[C@H](C(=O)NCCC(=O)NCCC(=O)N[C@@H](CCCCN)C(=O)O)CNC3=O [Peptide 3, Tm(GWIY)Δ(FΦRRRRΔ)-BBK] (GWIY[Dap]F[2Nal]RRRR[Dap][βAla][βAla]K-OH; linker N-5-12 via Trimesoyl; C-terminus assumed)
cellular entry efficiency (in words) [5]: slightly decreased the cellular entry efficiency

CC[C@H](C)[C@@H]1NC(=O)[C@H](Cc2c[nH]c3ccccc23)NC(=O)CNC(=O)c2cc3cc(c2)C(=O)NC[C@@H](C(=O)NCCC(=O)NCCC(=O)N[C@@H](CCCCN)C(=O)O)NC(=O)[C@H](CCCNC(=N)N)NC(=O)[C@@H](CCCNC(=N)N)NC(=O)[C@H](CCCNC(=N)N)NC(=O)[C@H](Cc2ccc4ccccc4c2)NC(=O)[C@H](C)NC(=O)[C@H](CNC3=O)NC(=O)[C@H](C)NC(=O)[C@H](Cc2ccc(O)cc2)NC1=O [Peptide 15, Tm(GWIYA)Δ(AΦRrRΔ)-BBK] (GWIYA[Dap]A[2Nal]R[dR]R[Dap][βAla][βAla]K-OH; linker N-6-12 via Trimesoyl; C-terminus assumed)
NEMO-binding affinity on Ala substitution (in words) [2]: significantly de-creased the NEMO-binding affinity

C[C@@H]1NC(=O)CNC(=O)c2cc3cc(c2)C(=O)NC[C@@H](C(=O)NCCC(=O)NCCC(=O)N[C@@H](CCCCN)C(=O)O)NC(=O)[C@H](CCCNC(=N)N)NC(=O)[C@@H](CCCNC(=N)N)NC(=O)[C@H](CCCNC(=N)N)NC(=O)[C@H](Cc2ccc4ccccc4c2)NC(=O)[C@H](Cc2ccccc2)NC(=O)[C@H](CNC3=O)NC(=O)[C@H](C)NC(=O)[C@H](C)NC(=O)[C@H](C)NC1=O [Peptide 21, Tm(GAAAA)Δ(FΦRrRΔ)-BBK] (GAAAA[Dap]F[2Nal]R[dR]R[Dap][βAla][βAla]K-OH; linker N-6-12 via Trimesoyl; C-terminus assumed)
fold lower NEMO-binding affinity / potency [2]: > 100 fold | effect on TNFα-induced luciferase activity (in words) [3]: decreased the luciferase activity only at high concentrations | activity on A2780 viability (in words) [4]: much less active than peptide 7

CC[C@H](C)[C@H](NC(=O)[C@H](CCCCN)NC(=O)[C@@H](NC(=O)[C@H](CCC(N)=O)NC(=O)[C@@H](N)CCCNC(=N)N)[C@@H](C)CC)C(=O)N[C@@H](Cc1c[nH]c2ccccc12)C(=O)N[C@@H](Cc1ccccc1)C(=O)N[C@@H](CCC(N)=O)C(=O)N[C@@H](CC(N)=O)C(=O)N[C@@H](CCCNC(=N)N)C(=O)N[C@@H](CCCNC(=N)N)C(=O)N[C@@H](CCSC)C(=O)N[C@@H](CCCCN)C(=O)N[C@@H](Cc1c[nH]c2ccccc12)C(=O)N[C@@H](CCCCN)C(=O)N[C@@H](CCCCN)C(=O)NCC(=O)NCC(=O)N[C@H](C(=O)N[C@@H](C)C(=O)N[C@@H](CC(C)C)C(=O)N[C@@H](CC(=O)O)C(=O)N[C@@H](Cc1c[nH]c2ccccc12)C(=O)N[C@@H](CO)C(=O)N[C@@H](Cc1c[nH]c2ccccc12)C(=O)N[C@@H](CC(C)C)C(=O)N[C@@H](CCC(N)=O)C(=O)N[C@H](C(=O)N[C@@H](CCC(=O)O)C(=O)O)[C@@H](C)O)[C@@H](C)O [Peptide 1, reference compound]
half-life [6]: ~20 min | Permeability (%), cellular uptake efficiency [1]: 35%
